{"source": "patent US6887903B1", "about": "“N-(2-aryl-propionyl)-sulfonamides and pharmaceutical preparations containing them” (Dompe S.p.A., priority 1998, dated 2005)", "key": {"CO enzymes": {"tested_on": "CO enzymes", "settings": "ketoprofen enantiomers; cited from earlier work"}, "[1]": {"tested_on": "human PMNs leukocytes stimulated by IL-8", "assay": "Cytosol [Ca2+]i variations in human PMN stimulated by IL-8 (Fura-2AM)", "format": "cell-based", "settings": "for [Ca2+]i response, % compared with basal values (basal normalized at 100): compound 10^−6 M + IL-8 50 ng/mL, mean of responsive cells with SEM, PMN from 3 donors; for percentage of non-responsive cells: pretreated with compound 10^−6 M, IL-8 50 ng/mL (30% with only IL-8)", "description": "(§1) The compounds of the invention were studied using PMN cells obtained by sedimentation of heparinized blood from healthy volunteers on dextran; the mononuclear cells were removed by means of Ficoll/Hypaque whereas erythrocytes were removed by treatment with hypotonic solutions. Cell viability of PMN leukocytes was calculated by exclusion with Turk and Trypan Blue, while the percentage of PM-nucleates on the cytocentrifugate was evaluated upon staining with Diff Quinck (W. J. Ming et al., J. Immunol., 138, 1469, 1987).\n(§2) In each of the “in vitro” tests subsequently described, PMN were incubated with the compounds of the invention for 10 minutes at a temperature of 37° C.\n(§3) In the chemotaxis tests and in those for evaluating cytosol levels of the Ca^2+ ion, human recombinant IL-8 (Pepro Tech.) was used as stimulating agent: the freeze-dried protein was dissolved in HBSS (Hank's balanced salts solution) at a concentration of 100 ng/mL and was used after dilution in HBSS to concentrations of 10 ng/mL in the chemotaxis tests and of 25-50 ng/mL in the evaluation of [Ca^2+]i cell modifications.\nCytosol variations of [Ca^2+]i were determined according to the experimental model described by C. Bizzarri et al., (Blood, 86, 2388, 1995), using slides containing adhered PMN added with 1 μM Fura-2AM to evaluate [Ca^2+]i variations in actual time. In their turn, PMN cytocentrifugates were resuspended in RPMI 1640 medium with 5% FCS (bovine foetal serum) at a concentration of 3×10^6/mL and then inoculated (plated) on round glass slides of 25 mm diameter which were placed in incubator for 30 min. at 37° C. After three subsequent washings with BSS (Balanced salts solution) to remove the non adherent cells, all of the adherent cells were further incubated for a maximum of 4 hours before adding Fura-2AM.\nBy way of example, results obtained with R(−)-N-2-[3-(benzoylphenyl)-propionyl])-methanesulfonamide (DF 1661) and R(−)-N-2-[(4-Isobutylphenyl)-propionyl]-methanesulfonamide (DF 1681) using human PMNs leukocytes from 3 different donors are reported in the subsequent table. These leukocytes were considered responsive to IL-8 (50 ng/mL) when [Ca^2+]i was higher than the basal value by 34% (normalized at 100) in response to the stimulus.\nThe responses, expressed as % compared with [Ca^2+]i basal values, are the mean of the values of the responsive cells and include standard error (SEM); n is the number of replications. During these tests, the percentage of non-responsive cells was different in the different groups: 30% in the group treated with only IL-8, 40% in the group pretreated with DF 1661 and 70% in the group pretreated with DF 1681."}, "[2]": {"tested_on": "PMN human leukocytes stimulated by C5a", "assay": "Chemotaxis of human PMN induced by C5a", "format": "cell-based", "settings": "C5a 10^−9 M; DF 1681 from 10^−6 to 10^−7 M", "description": "as §1, §2\n(§4) In the chemotaxis test (according to W. Falket et al., J. Immunol. Methods, 33, 239, 1980) PVP filters of […] porosity and a plexigas microcamera suitable to perform 48 replications were used. The microcamera consists of a plexiglas piece containing 48 wells, each of 25 μL capacity, and is equipped with a cover, in its turn containing 48 pores arranged so that, once the lid has been placed on and screwed to the underneath part, 50 μL capacity top compartments are formed in the microcamera.\n(§5) Equal concentrations of the tested compounds were placed in the top wells containing the PMN suspension and in the lower ones, which contained the carrier optionally added with IL-8 (or a different stimulating agent)."}, "[3]": {"tested_on": "PMN human leukocytes stimulated by interleukin 8", "assay": "Chemotaxis of human PMN induced by IL-8", "format": "cell-based", "settings": "IL-8 10 ng/mL; concentration range from 10^−6 to 10^−11 M; mean ±S.D. of 3 independent tests", "description": "as §1, §2, §3\nIn the chemotaxis test (according to W. Falket et al., J. Immunol. Methods, 33, 239, 1980) PVP filters of […] porosity and a plexigas microcamera suitable to perform 48 replications were used. […]"}, "[4]": {"tested_on": "PMN human leukocytes stimulated by f-MLP", "assay": "Chemotaxis of human PMN induced by f-MLP", "format": "cell-based", "settings": "f-MLP 10^−8 M; DF 1681 from 10^−6 to 10^−7 M", "description": "as §1, §2, §4, §5"}, "[5]": {"tested_on": "human neutrophils stimulated by IL-8", "settings": "IL-8 1 nM; read-out: IC50 of blockage of chemotaxis stimulated by IL-8; cited from earlier work"}, "[6]": {"tested_on": "human neutrophils stimulated by complement C5a", "settings": "concentration range of 50 to 330 nM; cited from earlier work"}, "[7]": {"tested_on": "human neutrophils stimulated by GROα", "settings": "GROα 10 nM; read-out: IC50 of blockage of chemotaxis stimulated by GROα; cited from earlier work"}}}
{"smiles": "C[C@@H](C(=O)O)c1cccc(C(=O)c2ccccc2)c1", "note": "(single isomer, unassigned) [enantiomer (R)]", "values": [{"measurement": "lower potency of enantiomer (R) compared with enantiomer (S) as CO enzymes inhibitor", "setting": "CO enzymes", "result": "10-100 times"}]}
{"smiles": "C[C@@H](C(=O)NS(C)(=O)=O)c1cccc(C(=O)c2ccccc2)c1", "note": "[DF 1661]", "values": [{"measurement": "[Ca2+]i response, % compared with basal values (basal normalized at 100)", "setting": "[1]", "result": "184 + 16 (n = 10) %"}, {"measurement": "percentage of non-responsive cells", "setting": "[1]", "result": 40, "unit": "%"}]}
{"smiles": "CC(C)Cc1ccc([C@@H](C)C(=O)NS(C)(=O)=O)cc1", "note": "[DF 1681, R(−)-N-[2-(4-Isobutylphenyl)propionyl]-methanesulfonamide]", "values": [{"measurement": "inhibition of chemotaxis induced by C5a (FIG. 2)", "setting": "[2]", "result": "selectivity inhibit IL-8-induced chemotaxis instead of chemotaxis induced by C5a"}, {"measurement": "inhibition of chemotaxis induced by IL-8 (number of migrated PMN, FIG. 1)", "setting": "[3]", "result": "dose-dependently inhibits chemotaxis induced by IL-8"}, {"measurement": "inhibition of chemotaxis induced by f-MLP (FIG. 2)", "setting": "[4]", "result": "selectivity inhibit IL-8-induced chemotaxis instead of chemotaxis induced by C5a (10^−9 M) or by f-MLP"}, {"measurement": "[Ca2+]i response, % compared with basal values (basal normalized at 100)", "setting": "[1]", "result": "159 + 16 (n = 10) %"}, {"measurement": "percentage of non-responsive cells", "setting": "[1]", "result": 70, "unit": "%"}]}
{"smiles": "O=C(Nc1ccc([N+](=O)[O-])cc1O)Nc1ccccc1Br", "note": "[N-(2-hydroxy-4-nitrophenyl)-N′-(2-bromo-phenyl)urea]", "values": [{"measurement": "IC50", "setting": "[5]", "result": "20 to 60", "unit": "nM"}, {"measurement": "blockage of C5a-stimulated chemotaxis", "setting": "[6]", "result": "but not that of complement C5a-stimulated chemotaxis"}, {"measurement": "IC50", "setting": "[7]", "result": "20 to 60", "unit": "nM"}]}
